Consider 3 compounds from PMC6151956 (Slas Discovery, 2018).

Each structure is given as a SMILES string. Several values for one entry are separate records, joined by “and”; a condition that tells them apart may be missing. Equal entries are not always repeated. Where two headings read alike, the source gives them in different places.

The target in one assay is BTK in human PBMCs (Homo sapiens, UniProt Q06187). Description: TR-FRET BTK occupancy assay in purified human PBMCs from healthy volunteers. It is filed as cell-based.
Chain of BTK in human PBMCs (Q06187 whole entry): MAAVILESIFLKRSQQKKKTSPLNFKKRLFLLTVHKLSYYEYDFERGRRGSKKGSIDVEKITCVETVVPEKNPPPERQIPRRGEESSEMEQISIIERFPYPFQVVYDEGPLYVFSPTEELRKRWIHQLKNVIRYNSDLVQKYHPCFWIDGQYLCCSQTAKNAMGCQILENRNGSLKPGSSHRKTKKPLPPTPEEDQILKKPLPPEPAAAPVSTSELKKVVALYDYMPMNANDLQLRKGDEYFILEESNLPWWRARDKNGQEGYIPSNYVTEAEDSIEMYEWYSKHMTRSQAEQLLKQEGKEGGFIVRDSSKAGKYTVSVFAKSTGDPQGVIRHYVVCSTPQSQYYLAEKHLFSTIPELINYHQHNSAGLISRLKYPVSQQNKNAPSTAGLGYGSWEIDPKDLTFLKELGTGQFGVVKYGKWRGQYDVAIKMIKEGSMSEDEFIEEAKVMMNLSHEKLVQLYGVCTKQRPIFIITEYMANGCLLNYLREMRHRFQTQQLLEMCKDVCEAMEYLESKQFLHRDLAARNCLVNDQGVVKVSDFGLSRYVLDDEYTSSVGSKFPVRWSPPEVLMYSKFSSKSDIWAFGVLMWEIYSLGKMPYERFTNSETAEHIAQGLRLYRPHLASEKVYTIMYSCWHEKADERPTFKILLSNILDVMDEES
For a further assay, the target named is BTK in Ramos B cells (Homo sapiens, UniProt Q06187). Description: TR-FRET BTK occupancy assay in Ramos B cells. It is filed as cell-based. On the technique in general: Time-resolved FRET reads energy transfer from a long-lived donor to a nearby acceptor.
Chain of BTK in Ramos B cells (Q06187 whole entry): as above
Assay [1] has as its target Recombinant full-length human BTK (rBTK) (Homo sapiens, UniProt Q06187). Description: TR-FRET BTK occupancy assay on recombinant BTK. Format: binding.
Assay [2] addresses T1, BTK in whole blood (Homo sapiens, UniProt Q06187). The experiment in a line: Stability of tirabrutinib-treated whole blood. It is filed as cell-based.
For assay [3] the following is noted: phase 1 clinical study, cited from earlier work.
Assay [4] addresses BTK in BMMCs and PBMCs from patients with CLL (Homo sapiens, UniProt Q06187). It is filed as cell-based. Particulars: 110 nM tirabrutinib, 2 h ex vivo.
For assay [5], the target named is T1, BTK in whole blood. The experiment in a line: TR-FRET BTK occupancy assay in whole blood from healthy volunteers. It is filed as cell-based.
In assay [6] the test system is TEC. The following applies: cited from earlier work.
Assay [7] deals with interleukin-2-inducible T-cell kinase (ITK). Particulars: cited from earlier work.
Assay [8] has as its system epidermal growth factor kinase (EGFR). Particulars: cited from earlier work.
Assay [9] concerns TEC. The following applies: cited from earlier work. This is another data set of the same source.

T1 sequence (Q06187 whole entry): as above
Chain of BTK in BMMCs and PBMCs from patients with CLL (Q06187 whole entry): as above
Chain of Recombinant full-length human BTK (rBTK) (Q06187 whole entry): as above

Consider `CC#CC(=O)N1CC[C@@H](n2c(=O)n(-c3ccc(Oc4ccccc4)cc3)c3c(N)ncnc32)C1` [tirabrutinib, Tirabrutinib], for which the “concentration at which full BTK occupancy was achieved” value at BTK in human PBMCs is 500 to 1000 nM; at BTK in Ramos B cells, 500 to 1000 nM; in [1], 100 nM; on BTK in whole blood [5], 500 to 1000 nM. For the same compound, the “BTK occupancy on storage at 4 °C” value at BTK in whole blood [2] (whole blood pretreated 2 h, then stored at 4 °C for up to 48 h) is “maintained at the same level for up to 48 h”. Besides, the “BTK occupancy on storage at room temperature” value on BTK in whole blood [2] (whole blood pretreated 2 h, then stored at room temperature (24 h and more)) is “significantly higher target occupancy”. For the same compound, the “response rate in CLL” value in assay [3] (CLL) is given as 96%. Besides, the “response rate in MCL” value in assay [3] (MCL) is given as 92%. For the same compound, in [3] (nongerminal center DLBCL), the “response in nongerminal center DLBCL” value is reported as 35%. In [4], the BTK occupancy is ~100% and > 80%.
As for `CC#CC(=O)N1CCC[C@H]1c1nc(-c2ccc(C(=O)Nc3ccccn3)cc2)c2c(N)nccn12` [acalabrutinib, reference compound], at BTK in whole blood [2], the “BTK occupancy on storage at room temperature” value is on record as “effect of room temperature storage was also observed”.
`C=CC(=O)N1CCC[C@@H](n2nc(-c3ccc(Oc4ccccc4)cc3)c3c(N)ncnc32)C1` [ibrutinib]: the “Selectivity for BTK over TEC” value in the assay with TEC [6] is on record as 5.6 fold. Further, the “BTK selectivity versus ITK” value in [7] is listed as 21 fold. Moreover, the “BTK selectivity versus EGFR” value in [8] is 11 fold. Besides, the “BTK selectivity versus TEC” value in the assay with TEC [9] is reported as 156 fold.
